Experimental data as given in patent US20040157892A1, “Pesticidal fluoroethyl pyrazoles” (CROMPTON CO./Cie, priority 2003, published 2004).

How the values were obtained:
Assay type in all cases: in vivo
Tetranychus urticae Eggs = assay: mite ovicide (MIOV) bioassay; details: 100 ppm, contact on bean leaf, egg hatch evaluated nine days later
Protocol: (§1) For each compound tested, a stock solution of 3000 ppm was prepared by diluting 0.008 gram of each compound into 2.67 mL of acetone and further diluting with water to make the final concentrations used for the various screens, as follows:
In the mite ovicide (MIOV) bioassay, approximately 30 mite eggs on cowpea foliage were sprayed with a 100 ppm solution and egg hatch was evaluated nine days later.
(§2) Since only a single replicate was used for the DBM and SCR screens, confirmation of mortality in an additional evaluation with three larvae at the 100 ppm rate was required to substantiate the initial observation of activity.

[1] = tested on: Tetranychus urticae Motiles; assay: mite contact (MIC) bioassay; details: 300 ppm, contact on bean leaf, evaluated five days later
Protocol: as §1
In the mite contact (MIC) bioassay, approximately 20 motile mites confined on a cowpea leaf were sprayed with a 300 ppm concentration and evaluated five days later.
as §2

[2] = tested on: Plutella xylostella Larva; assay: diamondback moth (DBM) bioassay; details: 100 ppm, residual on diet, evaluated five days later, confirmed with three larvae
Protocol: as §1
In the diamondback moth (DBM) bioassay, a single larva was exposed to a diet with a surface that had been coated with a 100 ppm solution, and evaluated five days later.
as §2

`FCCn1cc(-c2ccc(Cl)s2)cn1` [Compound 6, 1-(2-fluoroethyl)-4-(5-chloro-2-thienyl)pyrazole] was tested, and the “Pesticidal Activity MIOV (control)” value (Tetranychus urticae Eggs) was 100%, the “Pesticidal Activity MIC (control)” value [1] was 100% and the “Pesticidal Activity DBM (control)” value [2] was 100%.

With `CCOC(=O)c1sc(-c2cnn(CCF)c2)nc1C(F)(F)F` [Compound 7, Ethyl 2-[1-(2-fluoroethyl)-4-pyrazolyl]-4-trifluoromethyl-5-thiazolecarboxylate] the “Pesticidal Activity MIOV (control)” value (Tetranychus urticae Eggs) was 100% and the “Pesticidal Activity MIC (control)” value [1] was 100%.

`FCCn1cc(-c2cccc(Cl)n2)cn1` [Compound 8, 1-(2-fluoroethyl)-4-(6-chloro-2-pyridyl)pyrazole] was tested, and the “Pesticidal Activity MIOV (control)” value (Tetranychus urticae Eggs) was 100% and the “Pesticidal Activity MIC (control)” value [1] was 100%.

`FCCn1cc(C#Cc2ccc(Cl)cc2)cn1` [Compound 9, 1-(2-fluoroethyl)-4-[(4-chlorophenyl)ethynyl]pyrazole] was tested, and the “Pesticidal Activity MIOV (control)” value (Tetranychus urticae Eggs) was 100% and the “Pesticidal Activity MIC (control)” value [1] was 100%.

In the case of `FCCn1cc(C#Cc2cccnc2)cn1` [Compound 10], the “Pesticidal Activity MIOV (control)” value (Tetranychus urticae Eggs) is reported as 100% and the “Pesticidal Activity MIC (control)” value [1] is reported as 100%.

For “Isopropyl 1-(2-fluoroethyl)-3(or 5)-nitro-1H-pyrazole-5 (or 3)-carboxylate [Compound 1]”, the “Pesticidal Activity MIC (control)” value [1] was 100% and the “Pesticidal Activity DBM (control)” value [2] was 100%.
